Laboratory results: US10160755B2 (Plexxikon Inc., priority 2015, dated 2018)
Changes are numbered by the printed parent chain.

Legend:
FLT3-D835Y = molecular target: T1, FLT3-D835Y (Homo sapiens, UniProt P36888, D835Y); assay: FLT3-D835Y biochemical kinase assay (AlphaScreen)
T1 construct: purchased Invitrogen PV3967
T1 sequence (P36888 27-993 D835Y): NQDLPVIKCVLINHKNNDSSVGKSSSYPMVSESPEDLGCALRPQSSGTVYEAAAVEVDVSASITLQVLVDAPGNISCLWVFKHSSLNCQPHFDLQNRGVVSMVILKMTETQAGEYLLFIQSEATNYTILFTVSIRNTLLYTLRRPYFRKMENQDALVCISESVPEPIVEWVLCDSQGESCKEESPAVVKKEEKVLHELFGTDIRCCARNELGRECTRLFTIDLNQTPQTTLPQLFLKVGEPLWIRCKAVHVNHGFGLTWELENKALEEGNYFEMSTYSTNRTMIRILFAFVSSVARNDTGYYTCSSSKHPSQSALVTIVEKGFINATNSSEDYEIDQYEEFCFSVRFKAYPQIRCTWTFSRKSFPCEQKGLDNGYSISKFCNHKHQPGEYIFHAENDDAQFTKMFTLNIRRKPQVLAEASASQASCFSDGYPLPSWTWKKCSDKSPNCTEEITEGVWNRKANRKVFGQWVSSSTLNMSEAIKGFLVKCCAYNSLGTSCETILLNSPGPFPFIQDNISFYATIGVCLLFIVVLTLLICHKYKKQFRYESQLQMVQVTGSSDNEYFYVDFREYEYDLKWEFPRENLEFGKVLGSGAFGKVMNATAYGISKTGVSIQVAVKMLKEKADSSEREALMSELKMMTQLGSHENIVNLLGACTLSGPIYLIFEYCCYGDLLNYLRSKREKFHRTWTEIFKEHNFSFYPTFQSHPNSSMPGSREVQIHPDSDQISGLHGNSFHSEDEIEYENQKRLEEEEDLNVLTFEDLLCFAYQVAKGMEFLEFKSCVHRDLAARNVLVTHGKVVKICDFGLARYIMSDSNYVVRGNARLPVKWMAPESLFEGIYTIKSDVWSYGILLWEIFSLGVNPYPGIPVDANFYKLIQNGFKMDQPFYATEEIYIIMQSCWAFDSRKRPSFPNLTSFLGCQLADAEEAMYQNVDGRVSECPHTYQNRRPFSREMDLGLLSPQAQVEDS
Method in brief: (§1)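 Read-out is AlphaScreen at 580 nm, where reduced substrate tyrosine phosphorylation lowers bead proximity signal. Reactions contain 30 nM biotinylated poly(Glu4-Tyr) and ATP at 10 μM (D835Y) or 100 μM (ITD); PY20 acceptor beads 10 μg/mL final, 60 min at room temperature before reading.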

[1] = molecular target: T2, BA/F3-FLT3-ITD + F691L cells (Homo sapiens, UniProt P36888, F691L, cells depend on it, form not given); assay: BA/F3-FLT3-ITD + F691L cell proliferation assay (CellTiter-Glo); format: cell-based, murine; conditions: BaF3 FLT3 ITD/F691L cells; read-out: Cell Activity (IC50 μM) BaF3_FLT3_ITD/F691L
T2 sequence (P36888 1-993 F691L): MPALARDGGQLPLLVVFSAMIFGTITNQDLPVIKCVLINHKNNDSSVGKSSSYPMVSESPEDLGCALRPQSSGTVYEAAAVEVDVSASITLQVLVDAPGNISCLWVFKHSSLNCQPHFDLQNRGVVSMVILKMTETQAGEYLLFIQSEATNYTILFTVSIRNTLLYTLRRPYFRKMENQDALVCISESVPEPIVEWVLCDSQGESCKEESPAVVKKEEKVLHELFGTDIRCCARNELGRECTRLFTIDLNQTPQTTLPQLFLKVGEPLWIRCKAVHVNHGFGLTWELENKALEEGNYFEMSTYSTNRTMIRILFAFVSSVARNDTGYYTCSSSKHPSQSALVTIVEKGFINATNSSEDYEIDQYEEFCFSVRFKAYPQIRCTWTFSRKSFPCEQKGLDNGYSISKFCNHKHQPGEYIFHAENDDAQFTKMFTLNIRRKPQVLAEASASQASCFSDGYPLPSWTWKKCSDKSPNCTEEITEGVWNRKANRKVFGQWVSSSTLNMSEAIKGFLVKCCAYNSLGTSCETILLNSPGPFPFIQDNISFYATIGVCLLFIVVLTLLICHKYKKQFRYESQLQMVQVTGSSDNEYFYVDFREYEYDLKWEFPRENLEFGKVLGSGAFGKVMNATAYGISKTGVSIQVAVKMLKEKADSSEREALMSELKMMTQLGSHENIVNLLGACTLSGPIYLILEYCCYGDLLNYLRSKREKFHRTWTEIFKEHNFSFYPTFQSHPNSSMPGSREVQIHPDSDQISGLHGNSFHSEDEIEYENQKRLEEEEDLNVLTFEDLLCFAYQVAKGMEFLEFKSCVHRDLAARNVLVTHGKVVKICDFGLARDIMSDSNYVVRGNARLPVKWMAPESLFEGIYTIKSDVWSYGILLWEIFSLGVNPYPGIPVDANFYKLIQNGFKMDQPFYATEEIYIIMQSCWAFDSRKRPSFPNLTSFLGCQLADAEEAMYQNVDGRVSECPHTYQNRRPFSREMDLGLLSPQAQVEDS
From the text: The FLT3 inhibitors may also be assessed using leukemia cell lines that express endogenous FLT3-ITD or cells that are engineered to express wild-type or mutant FLT3. The cells expressing endogenous FLT3 are dependent upon FLT3 catalytic activity for growth. For the engineered cells, murine BA/F3 cells were transfected with full-length FLT3 (either wild-type, or containing the ITD, D835Y, or F691L mutations, as noted). The parental BA/F3 cells are dependent upon Interleukin-3 (IL-3) for survival, and introduction of the FLT3 constructs renders these cells dependent upon FLT3 kinase activity when cultured in the absence of IL-3. Engineered BA/F3 cell growth assays can be performed in either the absence or presence of IL-3, to assess the compound inhibition of FLT3 or to detect the presence of off-target activity, respectively. Inhibitors of FLT3 kinase activity reduce or eliminate the FLT3 oncogenic signaling, resulting in reduced cell proliferation. This inhibition is measured as a function of compound concentration to assess IC50 values.
Cells were seeded at 1×10^4 cells per well of a 96 well cell culture plate in 50 μl of cell culture medium. Compounds were dissolved in DMSO, typically at a concentration of 5 mM and were serially diluted 1:3 for a total of eight points and added to the cells to final concentrations of 10, 3.3, 1.1, 0.37, 0.12, 0.041, 0.014 and 0.0046 μM in 100 μl cell culture medium (final concentration 0.2% DMSO). […] The cells were incubated at 37° C., 5% CO2 for three days. CellTiter-Glo Buffer (Promega Cell Viability Assay catalog #G7573) and substrate were equilibrated to room temperature, and enzyme/substrate Recombinant Firefly Luciferase/Beetle Luciferin was reconstituted. The cell plates were equilibrated to room temperature for 30 minutes, then lysed by addition of an equivalent volume of the Celltiter-Glo Reagent. The plate was mixed for 10 minutes on a plate shaker to lyse the cells. The plates were read on a Tecan M1000 using Luminescence protocol modified to read 0.1 s per well. The luminescence reading assesses the ATP content, which correlates directly with cell number such that the reading as a function of compound concentration was used to determine the IC50 value.

FLT3-ITD = molecular target: T3, FLT3-ITD (Homo sapiens, UniProt P36888); assay: FLT3-ITD biochemical kinase assay (AlphaScreen)
T3 construct: FLT3-ITD; Invitrogen #PV6190
T3 sequence (P36888 1-993): T2 sequence (P36888 1-993 F691L) with L691F
Method in brief: as §1

Row | Compound | IC50 (FLT3-D835Y) | GI50 [1] | IC50 (FLT3-ITD)
1 | c1cc(-c2cnc3[nH]cc(-c4ccc5ncn(C6CCCNC6)c5c4)c3n2)cc(N2CCNCC2)n1 (centres unmarked) [P-308, 2-(2-piperazin-1-yl-4-pyridyl)-7-[3-(3-piperidyl)benzimidazol-5-yl]-5H-pyrrolo[2,3-b]pyrazine] | 0.0001 to 1 µM | 0.0001 to 1 µM | –
2 | Fc1ccc(-n2cnc3ccc(-c4c[nH]c5ncc(-c6cccc(OC(F)(F)F)c6)cc45)cc32)cc1Cl [P-211, 1-(3-chloro-4-fluoro-phenyl)-6-[5-[3-(trifluoromethoxy)phenyl]-1H-pyrrolo[2,3-b]pyridin-3-yl]benzimidazole] | 0.0001 to 1 µM | – | 0.0001 to 1 µM
3 | Cn1cnc2ccc(-c3c[nH]c4ncc(C#Cc5ccccc5)cc34)cc21 [P-139, 1-methyl-6-[5-(2-phenylethynyl)-1H-pyrrolo[2,3-b]pyridin-3-yl]benzimidazole] | 0.0001 to 1 µM | – | 0.0001 to 1 µM
4 | CC(C)(C)n1cnc2ccc(-c3c[nH]c4ncc(C#Cc5ccccc5)nc34)cc21 [P-142, 7-(3-tert-butylbenzimidazol-5-yl)-2-(2-phenylethynyl)-5H-pyrrolo[2,3-b]pyrazine] | 0.0001 to 1 µM | – | 0.0001 to 1 µM
5 | Cn1cnc2ccc(-c3c[nH]c4ncc(-c5cccc(C(=O)NC6CC6)c5)nc34)cc21 [P-147, N-cyclopropyl-3-[7-(3-methylbenzimidazol-5-yl)-5H-pyrrolo[2,3-b]pyrazin-2-yl]benzamide] | 0.0001 to 1 µM | – | 0.0001 to 1 µM
6 | CC(C)S(=O)(=O)Nc1cccc(-c2cnc3[nH]cc(-c4ccc5ncn(C)c5c4)c3n2)c1 [P-152, N-[3-[7-(3-methylbenzimidazol-5-yl)-5H-pyrrolo[2,3-b]pyrazin-2-yl]phenyl]propane-2-sulfonamide] | 0.0001 to 1 µM | – | 0.0001 to 1 µM
7 | COc1cc(-c2cnc3[nH]cc(-c4ccc5ncn(C6CCCNC6)c5c4)c3c2)cc(OC)n1 (centres unmarked) [P-197, 5-(2,6-dimethoxy-4-pyridyl)-3-[3-(3-piperidyl)benzimidazol-5-yl]-1H-pyrrolo[2,3-b]pyridine] | 0.0001 to 1 µM | – | 0.0001 to 1 µM

Now from value to compound:

Row | IC50 (FLT3-D835Y) | GI50 [1] | IC50 (FLT3-ITD) | Compound
8 | 0.0001 to 1 µM | – | 0.0001 to 1 µM | COc1cc(-c2cnc3[nH]cc(-c4ccc5ncn(C)c5c4)c3n2)ccc1Cl [P-149, 2-(4-chloro-3-methoxy-phenyl)-7-(3-methylbenzimidazol-5-yl)-5H-pyrrolo[2,3-b]pyrazine]
9 | 0.0001 to 1 µM | – | 0.0001 to 1 µM | COc1cc(-c2cnc3[nH]cc(-c4ccc5ncn(C)c5c4)c3n2)cc(C)n1 [P-180, 2-(2-methoxy-6-methyl-4-pyridyl)-7-(3-methylbenzimidazol-5-yl)-5H-pyrrolo[2,3-b]pyrazine]
10 | 0.0001 to 1 µM | – | 0.0001 to 1 µM | O=C(C1CC1)N1CC=C(c2cnc3[nH]cc(-c4ccc5ncn(C6CCCNC6)c5c4)c3n2)C1 (centres unmarked) [P-137, cyclopropyl-[3-[7-[3-(3-piperidyl)benzimidazol-5-yl]-5H-pyrrolo[2,3-b]pyrazin-2-yl]-2,5-dihydropyrrol-1-yl]methanone]
11 | 0.0001 to 1 µM | – | 0.0001 to 1 µM | CCS(=O)(=O)Nc1cccc(-c2cnc3[nH]cc(-c4ccc5ncsc5c4)c3n2)c1 [P-169, N-[3-[7-(1,3-benzothiazol-6-yl)-5H-pyrrolo[2,3-b]pyrazin-2-yl]phenyl]ethanesulfonamide]
12 | 0.0001 to 1 µM | – | 0.0001 to 1 µM | COc1cnc2[nH]cc(-c3ccc4c(c3)N(C)CCO4)c2c1 [P-107, 6-(5-methoxy-1H-pyrrolo[2,3-b]pyridin-3-yl)-4-methyl-2,3-dihydro-1,4-benzoxazine]
13 | 0.0001 to 1 µM | – | 0.0001 to 1 µM | CC(C)(C)n1cnc2ccc(-c3c[nH]c4ncc(-c5cccc(OC(F)(F)F)c5)nc34)cc21 [P-191, 7-(3-tert-butylbenzimidazol-5-yl)-2-[3-(trifluoromethoxy)phenyl]-5H-pyrrolo[2,3-b]pyrazine]
